Assays:
[1] = system: human platelet Caspase-3 activity; assay: Human platelet toxicity experiment (Caspase-3 activity assay); assay type: cell-based; conditions: 90 min, data normalized, reference ABT-199
Method: Experimental Example 6: Human Platelet Toxicity Experiment (Caspase-3 Activity Assay)
10 mL of human whole blood was collected using a heparin sodium anticoagulation tube, mixed well by turning upside down, and centrifuged at 90 g for 10 min. The supernatant was collected and centrifuged at 1950 g for 10 min. The supernatant was discarded, and the residue was resuspended in 4 mL of PBS, and centrifuged at 1190 g for 5 min, and the procedure was repeated once. The supernatant was discarded, and the platelets were resuspended in PBS and adjusted to the density of 2-3×10^8 cells/mL. Cells were seeded into a 96-well plate at a density of 2-3×10^7 cells/mL and at 100 μL/well. 50 μL of control buffer was added to each negative control well, and 50 μL of compound at a corresponding concentration was added to each compound well, so that the final concentration of the compound was 2.5 μM, 2 μM, 1 μM or 0.5 μM, followed by incubation in an incubator at 37° C. for 90 min. The liquids in the 96-well plate were transferred to 1.5 mL centrifuge tubes, respectively. The tubes were centrifuged at 4° C. and 6000 g for 5 min, and placed on ice for later use after the supernatant was discarded. 5× lysis buffer was diluted into 1× lysis buffer with water in the kit, and protease inhibitor cocktail was added at a 1:200 ratio to prepare a lysis mixture for later use. 40 μL of lysis mixture was added to each centrifuge tube, and the platelets at the bottom were resuspended using a pipette. The suspension was lysed on ice for 15-20 min and centrifuged at 4° C. and 14,000 g for 10 min. The sample was sub-packaged for later use. 10× assay buffer was diluted into 1× assay buffer with water in the kit, and substrate Ac-DEVD-AMC was added at a 1:600 ratio to prepare a reaction mixture. 5 μL of assay buffer and 40 μL of reaction mixture were added to each blank control well. 5 μL of control platelet lysate and 40 μL of reaction mixture were added to each negative control well. 5 μL of platelet lysate and 40 μL of reaction mixture were added to each compound well. In this procedure, 40 μL of reaction mixture was added at last. The resulting mixture was mixed gently, and the plate was read by a PE Envision multi-functional microplate reader (excitation: 360 nm, emission: 460 nm) once every 10 min for 6 times. Caspase-3 activity was determined based on the intensity of the released AMC fluorescence, that is the slope of the fitted line to which each well corresponds represents Caspase activity (all data were normalized and the reference was ABT-199).

BCL-2/BAK = target: T1, BCL-2/BAK (Homo sapiens, UniProt P10415); assay: Screening on inhibitory activity for BCL-2/BAK binding (Cisbio HTRF kit)
T1 construct: purchased Cisbio
In short: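 HTRF competition assay: Tag1-BCL-2 and Tag2-BAK working dilutions were 5 nM and 120 nM. Compound (200–0.0488 nM final, 4-fold, 7 points, duplicates) was incubated with the proteins for 15 min at 25 °C, then with Eu-cryptate/XL665 antibodies for ≥2 h at 25 °C. IC50 was derived from a four-parameter fit.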

RS4;11 cells = assay: Inhibitory effect on proliferation of RS4;11 cells (CCK-8); assay type: cell-based, human
In short: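 RS4;11 cells were seeded at 1×10^5 cells/mL in RPMI with 5% FBS and incubated 24 h at 37° C, 5% CO2 before compound addition in duplicate. Inhibition was calculated against untreated and blank controls. IC50 came from a four-parameter fit of log concentration versus inhibition.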

[2] = In vitro stability in rat liver microsomes; assay type: in vitro ADME; conditions: 1 μM
Method: (§1) Experimental Example 3: In Vitro Stability in Liver Microsome
(§2) 300 μL of the final incubation system contains 30 μL of liver microsomes (protein concentration: 5 mg/mL), 30 μL of NADPH+MgCl2, 3 μL of the test compound (in acetonitrile), and 237 μL of PBS buffer (pH 7.4), wherein the proportion of the organic solvent (acetonitrile) is 1% (volume ratio). Two duplicate samples were prepared for each specie (mouse, rat and human), and each sample was 0.3 mL. Each tube which was added with 270 μL of a mixed solution of substrate and enzyme, and NADPH, after being pre-incubated at 37° C. for 5 min, was added with 30 μL of NADPH+MgCl2 and mixed. Then 50 μL of the mixture was taken at 0 min, 15 min, 30 min and 60 min, and added with 300 μL of glacial acetonitrile containing an internal standard to terminate the reaction.
(§3) 50 μL of the incubated sample was added with 300 μL of glacial acetonitrile containing an internal standard (20 ng/mL diazepam) for precipitation, vortexed for 5 min, and centrifuged (13,000 rpm, 20° C.) for 10 min. 70 μL of supernatant was taken and diluted with 70 μL of ultrapure water. After being mixed well, 1 μL of the resulting sample was injected for analysis.

[3] = In vitro stability in human liver microsomes; assay type: in vitro ADME; conditions: 1 μM
Method: as §1, §2, §3

[4] = In vitro stability in mouse liver microsomes; assay type: in vitro ADME; conditions: 1 μM
Method: as §1, §2, §3

BCL-XL/BAK = target: T2, BCL-XL/BAK (Homo sapiens, UniProt Q07817); assay: Screening on inhibitory activity for BCL-XL/BAK binding (Cisbio HTRF kit)
T2 construct: purchased Cisbio
In short: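 Tag1-BCL-XL and Tag2-BAK (2 nM and 80 nM before mixing) were combined with compounds at final 2000–0.488 nM (4-fold, 7 points, duplicates) for 15 min at 25° C. Eu3+ anti-Tag1 and XL665 anti-Tag2 were then added for ≥2 h at 25° C. HTRF (620/665 nm) gave IC50 by four-parameter fit.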

T1 sequence (P10415 whole entry, species assumed): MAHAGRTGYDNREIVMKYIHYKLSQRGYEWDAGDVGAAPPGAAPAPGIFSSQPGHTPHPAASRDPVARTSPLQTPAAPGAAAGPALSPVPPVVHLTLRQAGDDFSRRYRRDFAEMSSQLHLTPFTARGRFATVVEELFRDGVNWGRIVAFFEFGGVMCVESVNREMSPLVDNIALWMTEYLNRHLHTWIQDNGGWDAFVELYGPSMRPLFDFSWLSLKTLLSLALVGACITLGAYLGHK
T2 sequence (Q07817 whole entry, species assumed): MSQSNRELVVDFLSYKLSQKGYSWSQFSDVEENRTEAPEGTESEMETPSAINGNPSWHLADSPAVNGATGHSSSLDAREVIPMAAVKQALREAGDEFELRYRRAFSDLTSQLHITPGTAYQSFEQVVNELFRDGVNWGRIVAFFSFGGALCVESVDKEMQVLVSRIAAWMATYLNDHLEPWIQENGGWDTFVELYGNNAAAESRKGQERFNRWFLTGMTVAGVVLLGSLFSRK

| Structure (SMILES) | IC50 (BCL-2/BAK) [nM] | IC50 (RS4;11 cells; Homo sapiens, RS4-11, 72 h) [nM] | Rat Residual content after 60 min (%) [2] [%] | Human Residual content after 60 min (%) [3] [%] | Mouse Residual content after 60 min (%) [4] [%] | IC50 (BCL-XL/BAK) [nM] | human platelet Caspase-3 activity, Slope ([1]; compound concentration 1 μM) | human platelet Caspase-3 activity, Slope ([1]; compound concentration 0.5 μM) | human platelet Caspase-3 activity, Slope ([1]; compound concentration 2 μM) | IC50 (RS4;11 cells; 72 h) [nM] |
| --- | --- | --- | --- | --- | --- | --- | --- | --- | --- | --- |
| CN1CCC(CCNc2ccc(S(=O)(=O)NC(=O)c3ccc(N4CCN(CC5=C(c6ccc(C(F)(F)F)cc6Cl)CC(C)(C)CC5)CC4)cc3Oc3cnc4[nH]ccc4c3)cc2[N+](=O)[O-])CC1 [Compound 18-1, 4-(4-{[2-(2-chloro-4-trifluoromethylphenyl)-4,4-dimethylcyclohex-1-enyl]methyl}-piperazin-1-yl)-N-({3-nitro-4-[(2-(1-methylpiperidin-4-yl)ethyl)amino]phenyl}sulfonyl)-2-(1H-pyrrolo[2,3-b]pyridin-5-yloxy)-benzamide] | 2.7 | 4.3 |  |  |  |  | 0.31 |  |  |  |
| CCS(=O)(=O)N1CCOC(CNc2ccc(S(=O)(=O)NC(=O)c3ccc(N4CCN(CC5=C(c6ccc(C(F)(F)F)cc6Cl)CC(C)(C)CC5)CC4)cc3Oc3cnc4[nH]ccc4c3)cc2[N+](=O)[O-])C1 (stereo not drawn) [Compound 57-1, 4-(4-{[2-(2-chloro-4-trifluoromethylphenyl)-4,4-dimethylcyclohex-1-enyl]methyl}-piperazin-1-yl)-N-({3-nitro-4-[((4-(ethylsulfonyl)morpholin-2-yl)methyl)amino]phenyl}sulfonyl)-2-(1H-pyrrolo[2,3-b]pyridin-5-yloxy)-benzamide] | 3.4 | 2.3 |  |  |  | 268 |  | 0.08 | 0.04 |  |
| CCN1CCC(CCNc2ccc(S(=O)(=O)NC(=O)c3ccc(N4CCN(CC5=C(c6ccc(C(F)(F)F)cc6Cl)CC(C)(C)CC5)CC4)cc3Oc3cnc4[nH]ccc4c3)cc2[N+](=O)[O-])CC1 [Compound 19-1, 4-(4-{[2-(2-chloro-4-trifluoromethylphenyl)-4,4-dimethylcyclohex-1-enyl]methyl}-piperazin-1-yl)-N-({3-nitro-4-[(2-(1-ethylpiperidin-4-yl)ethyl)amino]phenyl}sulfonyl)-2-(1H-pyrrolo[2,3-b]pyridin-5-yloxy)-benzamide] | 2.5 | 3.5 |  |  |  |  | 0.12 |  |  |  |
| CC1(C)CCC(CN2CCN(c3ccc(C(=O)NS(=O)(=O)c4ccc(NCCC5CCN(CCF)CC5)c([N+](=O)[O-])c4)c(Oc4cnc5[nH]ccc5c4)c3)CC2)=C(c2ccc(C(F)(F)F)cc2Cl)C1 [Compound 20-1, 4-(4-{[2-(2-chloro-4-trifluoromethylphenyl)-4,4-dimethylcyclohex-1-enyl]methyl}-piperazin-1-yl)-N-({3-nitro-4-[(2-(1-(2-fluoroethyl)piperidin-4-yl)ethyl)amino]phenyl}sulfonyl)-2-(1H-pyrrolo[2,3-b]pyridin-5-yloxy)-benzamide] | 2.1 | 3.9 |  |  |  |  | 0.37 |  |  |  |
| CC(C)C(=O)N1CCOC(CNc2ccc(S(=O)(=O)NC(=O)c3ccc(N4CCN(CC5=C(c6ccc(C(F)(F)F)cc6Cl)CC(C)(C)CC5)CC4)cc3Oc3cnc4[nH]ccc4c3)cc2[N+](=O)[O-])C1 (stereo not drawn) [Compound 10-1, 4-(4-{[2-(2-chloro-4-trifluoromethylphenyl)-4,4-dimethylcyclohex-1-enyl]methyl}-piperazin-1-yl)-N-({3-nitro-4-[((4-isobutyrylmorpholin-2-yl)methyl)amino]phenyl}sulfonyl)-2-(1H-pyrrolo[2,3-b]pyridin-5-yloxy)-benzamide] | 2.8 | 5.6 | 69.9 | 78.0 | 30.1 | 194 |  |  |  |  |
| CC1(C)CCC(CN2CCN(c3ccc(C(=O)NS(=O)(=O)c4ccc(NC[C@@H]5COCCO5)c([N+](=O)[O-])c4)c(Oc4cnc5[nH]ccc5c4)c3)CC2)=C(c2ccc(C(F)(F)F)cc2Cl)C1 [Compound 7-1] | 3.5 |  |  |  |  | 289 | 0.48 |  |  | 4.6 |

Stronger by IC50 (BCL-2/BAK), values ahead:

| IC50 (BCL-2/BAK) [nM] | IC50 (RS4;11 cells; Homo sapiens, RS4-11, 72 h) [nM] | Rat Residual content after 60 min (%) [2] [%] | Human Residual content after 60 min (%) [3] [%] | Mouse Residual content after 60 min (%) [4] [%] | IC50 (BCL-XL/BAK) [nM] | Structure (SMILES) | human platelet Caspase-3 activity, Slope ([1]; compound concentration 1 μM) | human platelet Caspase-3 activity, Slope ([1]; compound concentration 0.5 μM) | human platelet Caspase-3 activity, Slope ([1]; compound concentration 2 μM) | IC50 (RS4;11 cells; 72 h) [nM] |
| --- | --- | --- | --- | --- | --- | --- | --- | --- | --- | --- |
| 2 | 2.9 |  |  |  |  | CN1CCC(CCCNc2ccc(S(=O)(=O)NC(=O)c3ccc(N4CCN(CC5=C(c6ccc(C(F)(F)F)cc6Cl)CC(C)(C)CC5)CC4)cc3Oc3cnc4[nH]ccc4c3)cc2[N+](=O)[O-])CC1 [Compound 17-1, 4-(4-{[2-(2-chloro-4-trifluoromethylphenyl)-4,4-dimethylcyclohex-1-enyl]methyl}-piperazin-1-yl)-N-({3-nitro-4-[(3-(1-methylpiperidin-4-yl)propyl)amino]phenyl}sulfonyl)-2-(1H-pyrrolo[2,3-b]pyridin-5-yloxy)-benzamide] | 0.48 |  |  |  |
| 1.8 | 2.7 | 101.7 | 69.8 | 55.7 |  | CC(=O)N1CCOC(CNc2ccc(S(=O)(=O)NC(=O)c3ccc(N4CCN(CC5=C(c6ccc(C(F)(F)F)cc6Cl)CC(C)(C)CC5)CC4)cc3Oc3cnc4[nH]ccc4c3)cc2[N+](=O)[O-])C1 (stereo not drawn) [Compound 9-1, 4-(4-{[2-(2-chloro-4-trifluoromethylphenyl)-4,4-dimethylcyclohex-1-enyl]methyl}-piperazin-1-yl)-N-({3-nitro-4-[((4-acetylmorpholin-2-yl)methyl)amino]phenyl}sulfonyl)-2-(1H-pyrrolo[2,3-b]pyridin-5-yloxy)-benzamide] |  |  |  |  |
| 1.8 | 1.9 |  |  |  | 121 | CC1(C)CCC(CN2CCN(c3ccc(C(=O)NS(=O)(=O)c4ccc(NC[C@@H]5CCCOC5)c([N+](=O)[O-])c4)c(Oc4cnc5[nH]ccc5c4)c3)CC2)=C(c2ccc(C(F)(F)F)cc2Cl)C1 [Compound 43-1, (S)-4-(4-{[2-(2-chloro-4-trifluoromethylphenyl)-4,4-dimethylcyclohex-1-enyl]methyl}-piperazin-1-yl)-N-({3-nitro-4-[((tetrahydropyran-3-yl)methyl)amino]phenyl}sulfonyl)-2-(1H-pyrrolo[2,3-b]pyridin-5-yloxy)-benzamide] |  | 0.19 | 0.09 |  |
| 1.5 | 1.8 |  |  |  | 134 | CC(=O)N1CCO[C@H](CNc2ccc(S(=O)(=O)NC(=O)c3ccc(N4CCN(CC5=C(c6ccc(C(F)(F)F)cc6Cl)CC(C)(C)CC5)CC4)cc3Oc3cnc4[nH]ccc4c3)cc2[N+](=O)[O-])C1 [Compound 65-1, (R)-4-(4-{[2-(2-chloro-4-trifluoromethylphenyl)-4,4-dimethylcyclohex-1-enyl]methyl}-piperazin-1-yl)-N-({3-nitro-4-[((4-acetylmorpholin-2-yl)methyl)amino]phenyl}sulfonyl)-2-(1H-pyrrolo[2,3-b]pyridin-5-yloxy)-benzamide] |  | 0.44 | 0.43 |  |

— US20250257064A1, “TRIFLUOROMETHYL-SUBSTITUTED SULFONAMIDE AS BCL-2-SELECTIVE INHIBITOR” (Chia Tai Tianqing Pharmaceutical Group Co., Ltd., priority 2018, published 2025)
